Reference: US9840520B2, “Heterocyclic hydroxamic acids as protein deacetylase inhibitors and dual protein deacetylase-protein kinase inhibitors and methods of use thereof” (The Regents of the University of Colorado, A Body Corporate, priority 2014, dated 2017)
One block for each compound: values may come before it.

Key:
HDAC-10 = HDAC-10 (Homo sapiens, UniProt Q969S8); test: HDAC Fluorescent Activity Assay (Fluor de Lys), HDAC-10
HDAC-5 = HDAC-5 (Homo sapiens, UniProt Q9UQL6); test: HDAC Fluorescent Activity Assay (Fluor de Lys), HDAC-5
HDAC-5, sequence (Q9UQL6 whole entry): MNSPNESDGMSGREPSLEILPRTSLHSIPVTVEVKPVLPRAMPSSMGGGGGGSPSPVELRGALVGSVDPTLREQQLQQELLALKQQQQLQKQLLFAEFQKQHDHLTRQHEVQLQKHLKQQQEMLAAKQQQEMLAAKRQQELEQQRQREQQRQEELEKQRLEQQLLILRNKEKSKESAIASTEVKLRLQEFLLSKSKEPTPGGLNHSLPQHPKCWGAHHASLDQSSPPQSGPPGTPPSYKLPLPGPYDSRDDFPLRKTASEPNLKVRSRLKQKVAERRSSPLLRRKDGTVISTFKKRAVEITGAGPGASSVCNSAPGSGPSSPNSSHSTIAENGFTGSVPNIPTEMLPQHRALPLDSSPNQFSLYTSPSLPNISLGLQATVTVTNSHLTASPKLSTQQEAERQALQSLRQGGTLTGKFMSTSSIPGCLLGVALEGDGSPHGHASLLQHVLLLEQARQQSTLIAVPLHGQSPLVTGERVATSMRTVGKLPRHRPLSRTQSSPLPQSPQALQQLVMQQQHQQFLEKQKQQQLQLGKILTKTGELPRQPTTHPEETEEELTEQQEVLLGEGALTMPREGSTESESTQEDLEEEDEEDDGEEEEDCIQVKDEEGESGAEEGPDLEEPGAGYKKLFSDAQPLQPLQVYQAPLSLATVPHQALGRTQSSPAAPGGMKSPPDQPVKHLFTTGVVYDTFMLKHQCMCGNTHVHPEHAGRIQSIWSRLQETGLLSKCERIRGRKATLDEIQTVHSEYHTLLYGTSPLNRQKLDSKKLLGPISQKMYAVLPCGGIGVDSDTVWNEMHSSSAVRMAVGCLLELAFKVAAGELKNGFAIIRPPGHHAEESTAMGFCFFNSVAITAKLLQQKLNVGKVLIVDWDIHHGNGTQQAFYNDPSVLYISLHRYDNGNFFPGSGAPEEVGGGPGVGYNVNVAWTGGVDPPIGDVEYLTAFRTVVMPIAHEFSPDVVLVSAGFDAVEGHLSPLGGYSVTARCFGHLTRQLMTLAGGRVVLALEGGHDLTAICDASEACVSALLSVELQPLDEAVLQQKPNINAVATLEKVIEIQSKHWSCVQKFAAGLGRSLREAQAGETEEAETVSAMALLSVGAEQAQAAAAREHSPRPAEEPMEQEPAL

HDAC-6 = HDAC-6 (Homo sapiens, UniProt Q9UBN7); test: HDAC Fluorescent Activity Assay (Fluor de Lys), HDAC-6
HDAC-9 = HDAC-9 (Homo sapiens, UniProt Q9UKV0); test: HDAC Fluorescent Activity Assay (Fluor de Lys), HDAC-9
HDAC-4 = HDAC-4 (Homo sapiens, UniProt P56524); test: HDAC Fluorescent Activity Assay (Fluor de Lys), HDAC-4
HDAC-4, sequence (P56524 whole entry): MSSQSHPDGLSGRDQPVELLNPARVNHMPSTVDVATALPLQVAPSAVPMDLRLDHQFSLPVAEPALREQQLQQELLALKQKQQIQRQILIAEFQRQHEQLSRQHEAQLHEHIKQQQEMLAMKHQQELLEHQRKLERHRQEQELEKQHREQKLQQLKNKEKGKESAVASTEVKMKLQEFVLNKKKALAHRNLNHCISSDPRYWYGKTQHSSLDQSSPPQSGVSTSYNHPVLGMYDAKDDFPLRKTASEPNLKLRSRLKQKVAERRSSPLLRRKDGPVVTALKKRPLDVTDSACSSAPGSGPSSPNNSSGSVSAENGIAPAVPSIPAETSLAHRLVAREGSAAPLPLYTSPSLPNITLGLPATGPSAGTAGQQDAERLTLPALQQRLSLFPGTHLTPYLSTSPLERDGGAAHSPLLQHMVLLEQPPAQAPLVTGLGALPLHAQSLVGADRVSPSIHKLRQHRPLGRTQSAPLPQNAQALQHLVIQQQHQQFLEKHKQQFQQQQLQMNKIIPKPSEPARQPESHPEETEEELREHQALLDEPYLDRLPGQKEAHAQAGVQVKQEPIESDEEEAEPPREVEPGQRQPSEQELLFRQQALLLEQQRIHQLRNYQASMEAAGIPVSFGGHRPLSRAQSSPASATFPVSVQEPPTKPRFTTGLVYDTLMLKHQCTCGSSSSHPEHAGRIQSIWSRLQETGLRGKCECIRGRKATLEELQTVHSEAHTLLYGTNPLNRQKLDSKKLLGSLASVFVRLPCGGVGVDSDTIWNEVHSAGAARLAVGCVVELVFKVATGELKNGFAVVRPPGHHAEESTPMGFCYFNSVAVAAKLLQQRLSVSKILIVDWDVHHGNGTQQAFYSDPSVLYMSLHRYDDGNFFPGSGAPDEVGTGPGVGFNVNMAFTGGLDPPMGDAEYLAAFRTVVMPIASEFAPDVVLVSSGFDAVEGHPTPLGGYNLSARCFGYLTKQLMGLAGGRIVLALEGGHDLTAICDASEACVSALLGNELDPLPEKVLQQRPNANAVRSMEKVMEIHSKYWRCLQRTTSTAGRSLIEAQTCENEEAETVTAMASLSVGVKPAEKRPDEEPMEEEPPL

HDAC-1 = HDAC-1 (Homo sapiens, UniProt Q13547); test: HDAC Fluorescent Activity Assay (Fluor de Lys), HDAC-1
HDAC-1, sequence (Q13547 whole entry): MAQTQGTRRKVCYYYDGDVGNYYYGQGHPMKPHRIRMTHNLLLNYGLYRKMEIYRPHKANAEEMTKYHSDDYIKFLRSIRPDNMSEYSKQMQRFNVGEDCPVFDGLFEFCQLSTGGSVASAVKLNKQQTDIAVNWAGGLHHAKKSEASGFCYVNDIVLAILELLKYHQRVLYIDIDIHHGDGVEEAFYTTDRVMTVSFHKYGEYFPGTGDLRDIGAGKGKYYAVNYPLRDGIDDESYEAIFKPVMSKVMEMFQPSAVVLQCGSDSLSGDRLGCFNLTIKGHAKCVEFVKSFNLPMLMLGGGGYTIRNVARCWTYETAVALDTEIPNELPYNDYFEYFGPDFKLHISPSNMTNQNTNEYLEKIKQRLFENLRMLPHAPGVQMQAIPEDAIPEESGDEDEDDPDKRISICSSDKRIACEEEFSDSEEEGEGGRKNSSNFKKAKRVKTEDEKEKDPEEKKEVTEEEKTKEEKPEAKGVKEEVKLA

HDAC-3 = HDAC-3 (Homo sapiens, UniProt O15379); test: HDAC Fluorescent Activity Assay (Fluor de Lys), HDAC-3
HDAC-3, sequence (O15379 whole entry): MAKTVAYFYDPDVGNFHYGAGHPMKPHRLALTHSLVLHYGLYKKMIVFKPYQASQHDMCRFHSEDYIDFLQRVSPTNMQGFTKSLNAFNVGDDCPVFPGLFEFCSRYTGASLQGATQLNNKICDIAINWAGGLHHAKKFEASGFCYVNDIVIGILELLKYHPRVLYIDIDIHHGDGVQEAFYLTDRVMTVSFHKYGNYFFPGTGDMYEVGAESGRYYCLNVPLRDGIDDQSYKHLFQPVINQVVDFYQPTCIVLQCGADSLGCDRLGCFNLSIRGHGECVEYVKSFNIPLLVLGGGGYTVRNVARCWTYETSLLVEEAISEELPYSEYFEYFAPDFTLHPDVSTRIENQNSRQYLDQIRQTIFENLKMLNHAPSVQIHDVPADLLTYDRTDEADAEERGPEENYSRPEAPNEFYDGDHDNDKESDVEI
HDAC-3, sequence (Q9Y618 395-489 partner limits assumed): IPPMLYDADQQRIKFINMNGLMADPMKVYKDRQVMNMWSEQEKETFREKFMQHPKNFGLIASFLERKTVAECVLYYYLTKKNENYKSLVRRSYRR

HDAC-8 = HDAC-8 (Homo sapiens, UniProt Q9BY41); test: HDAC Fluorescent Activity Assay (Fluor de Lys), HDAC-8
HDAC-2 = HDAC-2 (Homo sapiens, UniProt Q92769); test: HDAC Fluorescent Activity Assay (Fluor de Lys), HDAC-2
HDAC-7 = HDAC-7 (Homo sapiens, UniProt Q8WUI4); test: HDAC Fluorescent Activity Assay (Fluor de Lys), HDAC-7
HDAC-7, sequence (Q8WUI4 whole entry): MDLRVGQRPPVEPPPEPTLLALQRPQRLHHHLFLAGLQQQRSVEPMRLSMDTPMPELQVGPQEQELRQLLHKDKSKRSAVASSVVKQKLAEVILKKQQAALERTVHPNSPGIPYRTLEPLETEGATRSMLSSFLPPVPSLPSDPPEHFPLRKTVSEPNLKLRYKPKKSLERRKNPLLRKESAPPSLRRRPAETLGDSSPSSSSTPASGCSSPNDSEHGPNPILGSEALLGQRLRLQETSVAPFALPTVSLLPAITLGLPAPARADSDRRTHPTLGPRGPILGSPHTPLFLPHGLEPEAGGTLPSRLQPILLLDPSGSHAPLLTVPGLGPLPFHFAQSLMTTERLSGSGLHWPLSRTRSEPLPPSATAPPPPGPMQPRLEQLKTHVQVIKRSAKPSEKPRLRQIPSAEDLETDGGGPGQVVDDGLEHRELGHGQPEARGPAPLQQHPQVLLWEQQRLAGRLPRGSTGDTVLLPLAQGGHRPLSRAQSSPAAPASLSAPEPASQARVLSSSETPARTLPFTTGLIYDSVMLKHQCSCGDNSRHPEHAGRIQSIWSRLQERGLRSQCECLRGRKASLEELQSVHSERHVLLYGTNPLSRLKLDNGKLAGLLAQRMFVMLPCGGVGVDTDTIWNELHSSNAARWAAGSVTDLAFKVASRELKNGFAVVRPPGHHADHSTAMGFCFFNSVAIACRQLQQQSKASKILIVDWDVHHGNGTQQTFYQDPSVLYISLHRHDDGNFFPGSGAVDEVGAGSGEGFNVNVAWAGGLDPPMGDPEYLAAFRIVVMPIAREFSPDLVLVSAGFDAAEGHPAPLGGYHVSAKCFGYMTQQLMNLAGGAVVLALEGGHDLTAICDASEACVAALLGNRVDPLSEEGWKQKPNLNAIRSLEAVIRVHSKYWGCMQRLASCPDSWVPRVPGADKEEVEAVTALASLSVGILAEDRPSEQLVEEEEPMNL

HDAC-11 = HDAC-11 (Homo sapiens, UniProt Q96DB2); test: HDAC Fluorescent Activity Assay (Fluor de Lys), HDAC-11
BT-549 = test: NCI60 tumour cell line screen, BT-549; assay type: cell-based; settings: Homo sapiens; BT-549, Breast Cancer
NCI-H522 = test: NCI60 tumour cell line screen, NCI-H522; assay type: cell-based; settings: Homo sapiens; NCI-H522, Non-Small Cell Lung Cancer
HCT-116 = test: NCI60 tumour cell line screen, HCT-116; assay type: cell-based; settings: Homo sapiens; HCT-116, Colon Cancer
ACHN = test: NCI60 tumour cell line screen, ACHN; assay type: cell-based; settings: Homo sapiens, Renal Cancer
SNB-75 = test: NCI60 tumour cell line screen, SNB-75; assay type: cell-based; settings: Homo sapiens; SNB-75, CNS Cancer
COLO205 = test: NCI60 tumour cell line screen, COLO205; assay type: cell-based; settings: Homo sapiens, COLO 205; COLO205, Colon Cancer
K-562 = test: NCI60 tumour cell line screen, K-562; assay type: cell-based; settings: Homo sapiens, K562; K-562, Leukemia
UACC-257 = test: NCI60 tumour cell line screen, UACC-257; assay type: cell-based; settings: Homo sapiens; UACC-257, Melanoma
SK-OV-3 = test: NCI60 tumour cell line screen, SK-OV-3; assay type: cell-based; settings: Homo sapiens; SK-OV-3, Ovarian Cancer
A549/ATCC = test: NCI60 tumour cell line screen, A549/ATCC; assay type: cell-based; settings: Homo sapiens, Non-Small Cell Lung Cancer
OVCAR-4 = test: NCI60 tumour cell line screen, OVCAR-4; assay type: cell-based; settings: Homo sapiens; OVCAR-4, Ovarian Cancer
DU-145 = test: NCI60 tumour cell line screen, DU-145; assay type: cell-based; settings: Homo sapiens; DU-145, Prostate Cancer
IGROV1 = test: NCI60 tumour cell line screen, IGROV1; assay type: cell-based; settings: Homo sapiens, IGROV-1; IGROV1, Ovarian Cancer
HS578T = test: NCI60 tumour cell line screen, HS578T; assay type: cell-based; settings: Homo sapiens, Hs-578T, Breast Cancer
MOLT-4 = test: NCI60 tumour cell line screen, MOLT-4; assay type: cell-based; settings: Homo sapiens; MOLT-4, Leukemia
UO-31 = test: NCI60 tumour cell line screen, UO-31; assay type: cell-based; settings: Homo sapiens; UO-31, Renal Cancer
MDA-MB-231/ATCC = test: NCI60 tumour cell line screen, MDA-MB-231/ATCC; assay type: cell-based; settings: Homo sapiens, Breast Cancer
SK-MEL-5 = test: NCI60 tumour cell line screen, SK-MEL-5; assay type: cell-based; settings: Homo sapiens; SK-MEL-5, Melanoma
MDA-MB-468 = test: NCI60 tumour cell line screen, MDA-MB-468; assay type: cell-based; settings: Homo sapiens; MDA-MB-468, Breast Cancer
SK-MEL-2 = test: NCI60 tumour cell line screen, SK-MEL-2; assay type: cell-based; settings: Homo sapiens; SK-MEL-2, Melanoma
SF-295 = test: NCI60 tumour cell line screen, SF-295; assay type: cell-based; settings: Homo sapiens; SF-295, CNS Cancer
HT29 = test: NCI60 tumour cell line screen, HT29; assay type: cell-based; settings: Homo sapiens, HT-29; HT29, Colon Cancer
HOP-62 = test: NCI60 tumour cell line screen, HOP-62; assay type: cell-based; settings: Homo sapiens; HOP-62, Non-Small Cell Lung Cancer
CAKI-1 = test: NCI60 tumour cell line screen, CAKI-1; assay type: cell-based; settings: Homo sapiens; CAKI-1, Renal Cancer
786-0 = test: NCI60 tumour cell line screen, 786-0; assay type: cell-based; settings: Homo sapiens; 786-0, Renal Cancer
SW-620 = test: NCI60 tumour cell line screen, SW-620; assay type: cell-based; settings: Homo sapiens; SW-620, Colon Cancer
NCI-H322M = test: NCI60 tumour cell line screen, NCI-H322M; assay type: cell-based; settings: Homo sapiens, Non-Small Cell Lung Cancer
UACC-62 = test: NCI60 tumour cell line screen, UACC-62; assay type: cell-based; settings: Homo sapiens; UACC-62, Melanoma
OVCAR-8 = test: NCI60 tumour cell line screen, OVCAR-8; assay type: cell-based; settings: Homo sapiens; OVCAR-8, Ovarian Cancer
RXF393 = test: NCI60 tumour cell line screen, RXF393; assay type: cell-based; settings: Homo sapiens, RXF 393; RXF393, Renal Cancer
NCI-H226 = test: NCI60 tumour cell line screen, NCI-H226; assay type: cell-based; settings: Homo sapiens; NCI-H226, Non-Small Cell Lung Cancer
SR = test: NCI60 tumour cell line screen, SR; assay type: cell-based; settings: Homo sapiens, Leukemia
HL-60(TB) = test: NCI60 tumour cell line screen, HL-60(TB); assay type: cell-based; settings: Homo sapiens, Leukemia
NCI-H460 = test: NCI60 tumour cell line screen, NCI-H460; assay type: cell-based; settings: Homo sapiens; NCI-H460, Non-Small Cell Lung Cancer
T-47D = test: NCI60 tumour cell line screen, T-47D; assay type: cell-based; settings: Homo sapiens, T47D, Breast Cancer
MCF7 = test: NCI60 tumour cell line screen, MCF7; assay type: cell-based; settings: Homo sapiens; MCF7, Breast Cancer
OVCAR-5 = test: NCI60 tumour cell line screen, OVCAR-5; assay type: cell-based; settings: Homo sapiens; OVCAR-5, Ovarian Cancer
MALME-3M = test: NCI60 tumour cell line screen, MALME-3M; assay type: cell-based; settings: Homo sapiens, Melanoma
HCT-15 = test: NCI60 tumour cell line screen, HCT-15; assay type: cell-based; settings: Homo sapiens; HCT-15, Colon Cancer
NCI-H23 = test: NCI60 tumour cell line screen, NCI-H23; assay type: cell-based; settings: Homo sapiens; NCI-H23, Non-Small Cell Lung Cancer
U251 = test: NCI60 tumour cell line screen, U251; assay type: cell-based; settings: Homo sapiens, U-251; U251, CNS Cancer
OVCAR-3 = test: NCI60 tumour cell line screen, OVCAR-3; assay type: cell-based; settings: Homo sapiens; OVCAR-3, Ovarian Cancer
SF-539 = test: NCI60 tumour cell line screen, SF-539; assay type: cell-based; settings: Homo sapiens; SF-539, CNS Cancer
NCI/ADR-RES = test: NCI60 tumour cell line screen, NCI/ADR-RES; assay type: cell-based; settings: Homo sapiens, Ovarian Cancer
LOXIMVI = test: NCI60 tumour cell line screen, LOXIMVI; assay type: cell-based; settings: Homo sapiens, LOX IMVI, Melanoma
A498 = test: NCI60 tumour cell line screen, A498; assay type: cell-based; settings: Homo sapiens; A498, Renal Cancer
MDA-MB-435 = test: NCI60 tumour cell line screen, MDA-MB-435; assay type: cell-based; settings: Homo sapiens; MDA-MB-435, Melanoma
M14 = test: NCI60 tumour cell line screen, M14; assay type: cell-based; settings: Homo sapiens; M14, Melanoma
SK-MEL-28 = test: NCI60 tumour cell line screen, SK-MEL-28; assay type: cell-based; settings: Homo sapiens; SK-MEL-28, Melanoma
TK-10 = test: NCI60 tumour cell line screen, TK-10; assay type: cell-based; settings: Homo sapiens; TK-10, Renal Cancer
HCC-2998 = test: NCI60 tumour cell line screen, HCC-2998; assay type: cell-based; settings: Homo sapiens; HCC-2998, Colon Cancer
RPMI-8226 = test: NCI60 tumour cell line screen, RPMI-8226; assay type: cell-based; settings: Homo sapiens; RPMI-8226, Leukemia
CCRF-CEM = test: NCI60 tumour cell line screen, CCRF-CEM; assay type: cell-based; settings: Homo sapiens, Leukemia
SN12C = test: NCI60 tumour cell line screen, SN12C; assay type: cell-based; settings: Homo sapiens, Renal Cancer
SF-268 = test: NCI60 tumour cell line screen, SF-268; assay type: cell-based; settings: Homo sapiens; SF-268, CNS Cancer
PC-3 = test: NCI60 tumour cell line screen, PC-3; assay type: cell-based; settings: Homo sapiens; PC-3, Prostate Cancer
KM12 = test: NCI60 tumour cell line screen, KM12; assay type: cell-based; settings: Homo sapiens; KM12, Colon Cancer
SNB-19 = test: NCI60 tumour cell line screen, SNB-19; assay type: cell-based; settings: Homo sapiens; SNB-19, CNS Cancer
TTK/Mps1 = TTK/Mps1 (Homo sapiens, UniProt P33981); settings: TTK/Mps1 inhibitors of the literature; cited from earlier work
ovarian xenograft = settings: cited from earlier work

HDAC-10, sequence (Q969S8 whole entry): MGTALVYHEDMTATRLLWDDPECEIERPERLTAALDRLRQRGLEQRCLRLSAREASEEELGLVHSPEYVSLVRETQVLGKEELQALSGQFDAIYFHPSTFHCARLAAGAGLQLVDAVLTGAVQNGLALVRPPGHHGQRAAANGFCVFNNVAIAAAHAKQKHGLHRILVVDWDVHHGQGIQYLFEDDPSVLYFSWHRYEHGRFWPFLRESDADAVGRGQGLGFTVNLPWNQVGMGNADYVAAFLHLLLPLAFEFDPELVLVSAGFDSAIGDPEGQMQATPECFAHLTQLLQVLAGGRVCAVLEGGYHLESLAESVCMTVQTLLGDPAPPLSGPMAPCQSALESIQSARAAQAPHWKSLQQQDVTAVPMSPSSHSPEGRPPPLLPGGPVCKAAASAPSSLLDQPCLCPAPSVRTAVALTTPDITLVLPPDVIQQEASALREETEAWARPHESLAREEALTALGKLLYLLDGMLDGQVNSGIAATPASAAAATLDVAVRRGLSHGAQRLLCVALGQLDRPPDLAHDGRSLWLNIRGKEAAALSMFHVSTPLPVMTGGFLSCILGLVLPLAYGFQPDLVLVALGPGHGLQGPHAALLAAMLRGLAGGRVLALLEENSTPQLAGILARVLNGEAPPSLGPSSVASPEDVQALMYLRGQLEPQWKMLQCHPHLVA

IC50 (HDAC-10): 0.284 µM | IC50 (HDAC-5): > 100 µM | IC50 (HDAC-6): 0.0098 µM | IC50 (HDAC-9): > 100 µM | IC50 (HDAC-4): > 100 µM | IC50 (HDAC-1): 0.422 µM | IC50 (HDAC-3): 1.18 µM | IC50 (HDAC-8): 0.225 µM | IC50 (HDAC-2): 1.64 µM | IC50 (HDAC-7): > 100 µM | IC50 (HDAC-11): 0.159 µM
SMILES: Cn1cnc2c(NC3CCCCC3)nc(Nc3ccc(OCCCCCC(=O)NO)cc3)nc21 [Example 9, 6-(4-(6-(cyclohexylamino)-9-methyl-9H-purin-2-ylamino)phenoxy)-N-hydroxyhexanamide]

SMILES: O=C(CCCCCOc1ccc(Nc2nc(NC3CCCCC3)c3nc[nH]c3n2)cc1)NO [Example 3, 6-(4-(6-(cyclohexylamino)-9H-purin-2-ylamino)phenoxy)-N-hydroxyhexanamide]
GI50 (BT-549): 5.51 µM | GI50 (NCI-H522): 2.72 µM | GI50 (HCT-116): 1.45 µM | GI50 (ACHN): 3.57 µM | GI50 (SNB-75): 1.69 µM | GI50 (COLO205): 1.26 µM | GI50 (K-562): 2.03 µM | GI50 (UACC-257): 2.94 µM | GI50 (SK-OV-3): 2.52 µM | GI50 (A549/ATCC): 2.3 µM | GI50 (OVCAR-4): 3.82 µM | GI50 (DU-145): 2.51 µM | GI50 (IGROV1): 2.24 µM | GI50 (HS578T): 1.61 µM | GI50 (MOLT-4): 1.78 µM | GI50 (UO-31): 3.52 µM | GI50 (MDA-MB-231/ATCC): 1.93 µM | GI50 (SK-MEL-5): 2.82 µM | GI50 (MDA-MB-468): 2.4 µM | GI50 (SK-MEL-2): 2.93 µM | GI50 (SF-295): 2.35 µM | GI50 (HT29): 2.54 µM | GI50 (HOP-62): 2.96 µM | GI50 (CAKI-1): 4.68 µM | GI50 (786-0): 4.61 µM | GI50 (SW-620): 0.895 µM | GI50 (NCI-H322M): 3 µM | GI50 (UACC-62): 2.22 µM | GI50 (OVCAR-8): 2.8 µM | GI50 (RXF393): 1.9 µM | GI50 (NCI-H226): 2.88 µM | GI50 (SR): 0.669 µM | GI50 (HL-60(TB)): 2.95 µM | GI50 (NCI-H460): 2.04 µM | GI50 (T-47D): 2.33 µM | GI50 (MCF7): 1.46 µM | GI50 (OVCAR-5): 2.26 µM | GI50 (MALME-3M): 2.49 µM | GI50 (HCT-15): 4.3 µM | GI50 (NCI-H23): 4.73 µM | GI50 (U251): 1.96 µM | GI50 (OVCAR-3): 2.17 µM | GI50 (SF-539): 1.57 µM | GI50 (NCI/ADR-RES): 13.5 µM | GI50 (LOXIMVI): 1.18 µM | GI50 (A498): 0.195 µM | GI50 (MDA-MB-435): 2.46 µM | GI50 (M14): 1.96 µM | GI50 (SK-MEL-28): 3.64 µM | GI50 (TK-10): 2.68 µM | GI50 (HCC-2998): 3.58 µM | GI50 (RPMI-8226): 2.81 µM | GI50 (CCRF-CEM): 0.667 µM | GI50 (SN12C): 3.23 µM | GI50 (SF-268): 3.83 µM | GI50 (PC-3): 2.98 µM | GI50 (KM12): 1.74 µM | GI50 (SNB-19): 5.96 µM

IC50 (HDAC-10): 0.019 µM | IC50 (HDAC-5): > 100 µM | IC50 (HDAC-6): 0.0068 µM | IC50 (HDAC-9): > 100 µM | IC50 (HDAC-4): > 100 µM | IC50 (HDAC-1): 0.023 µM | IC50 (HDAC-3): 0.14 µM | IC50 (HDAC-8): 0.268 µM | IC50 (HDAC-2): 0.124 µM | IC50 (HDAC-7): > 100 µM | IC50 (HDAC-11): 0.012 µM
SMILES: Cn1cnc2c(NC3CCCCC3)nc(Nc3ccc(OCCCCCCC(=O)NO)cc3)nc21 [Example 8, 7-(4-(6-(Cyclohexylamino)-9-methyl-9H-purin-2-ylamino)phenoxy)-N-hydroxyheptanamide]

SMILES: Oc1c2ccccc2c2c3c(cccc13)N=N2 [SP600125]
IC50 (TTK/Mps1): 0.25 µM

SMILES: CCc1cccc(CC)c1NC(=O)c1nn(C)c2c1CCc1cnc(Nc3ccc(C(=O)NC4CCN(C)CC4)cc3OC(F)(F)F)nc1-2 [NMS-P715]
efficacy in an ovarian xenograft (ovarian xenograft): promising efficacies
